Measured values as given in patent US7713970B2, “Substituted cyclic urea derivatives” (FMC Corporation, priority 2004, dated 2010).

Tested on: tobacco budworm (Heliothis virescens [Fabricius])
Test: surface-treated diet test against tobacco budworm
Assay type: in vivo
Conditions: 0.25 millimolar candidate insecticide on the surface of the diet, second instar larvae, five-day exposure; for Percent Mortality: compared to total number of insects infested; for Percent Growth Inhibition: inhibition of insect weight relative to untreated controls
Experimental: Candidate insecticides were evaluated for activity against the tobacco budworm (Heliothis virescens [Fabricius]) in a surface-treated diet test.
In this test one mL of molten (65-70° C.) wheat germ-based artificial diet was pipetted into each well of a four by six (24 well) multi-well plate (ID# 430345-15.5 mm dia.×17.6 mm deep; Corning Costar Corp., One Alewife Center, Cambridge, Mass. 02140). The diet was allowed to cool to ambient temperature before treatment with candidate insecticide.
For a determination of insecticidal activity, solutions of the candidate insecticides were prepared for testing using a Packard 204DT Multiprobe® Robotic System (Packard Instrument Company, 800 Research Parkway, Meriden, Conn. 06450), in which the robot first diluted a standard 50 millimolar DMSO solution of candidate insecticide with a 1:1 water/acetone solution (V/V) in a ratio of 1:7 stock solution to water/acetone. The robot subsequently pipetted 40 microliters of the so-prepared solution onto the surface of the diet in each of three wells in the 24 multi-well plate. The process was repeated with solutions of seven other candidate insecticides. Once treated, the contents of the multi-well plate were allowed to dry, leaving 0.25 millimoles of candidate insecticide on the surface of the diet, or a concentration of 0.25 millimolar. Appropriate untreated controls containing only DMSO on the diet surface were also included in this test.
For evaluations of the insecticidal activity of a candidate insecticide at varying rates of application, the test was established as described above using sub-multiples of the standard 50 millimolar DMSO solution of candidate insecticide. For example, the standard 50 millimolar solution was diluted by the robot with DMSO to give 5, 0.5, 0.05, 0.005, 0.0005 millimolar, or more dilute solutions of the candidate insecticide. In these evaluations there were six replicates of each rate of application placed on the surface of the diet in the 24 multi-well plate, for a total of four rates of application of candidate insecticide in each plate.
In each well of the test plate was placed one second instar tobacco budworm larvea, each weighing approximately five milligrams. After the larvae were placed in each well, the plate was sealed with clear polyfilm adhesive tape. The tape over each well was perforated to ensure an adequate air supply. The plates were then held in a growth chamber at 25° C. and 60% relative humidity for five days (light 14 hours/day).
After the five-day exposure period insecticidal activity for each rate of application of candidate insecticide was assessed as percent inhibition of insect weight relative to the weight of insects from untreated controls, and percent mortality when compared to the total number of insects infested.

| Structure (SMILES) | Percent Mortality [%] | Percent Growth Inhibition [%] |
| --- | --- | --- |
| O=c1n(CCCCOc2c(Cl)cc(OCC=C(Cl)Cl)cc2Cl)cnn1-c1ccc(Cl)c(Cl)c1 [Compound 80] | 100 | 100 |
| O=c1n(CCCOc2c(Cl)cc(OCC=C(Cl)Cl)cc2Cl)nnn1Cc1ccccc1Cl [Compound 523] | 100 | 100 |
| O=c1cnn(-c2ccccc2Cl)c(=O)n1CCCCOc1c(Cl)cc(OCC=C(Cl)Cl)cc1Cl [Compound 652] | 100 | 100 |
| O=c1n(CCOc2c(Cl)cc(OCC=C(Cl)Cl)cc2Cl)nnn1-c1cccc(Cl)c1 [Compound 308] | 100 | 100 |
| O=c1n(CCCCOc2c(Cl)cc(OCC=C(Cl)Cl)cc2Cl)nnn1-c1ccc(OC(F)(F)F)cc1 [Compound 303] | 100 | 100 |
| O=c1cnn(-c2cccc(Cl)c2)c(=O)n1CCCCOc1c(Cl)cc(OCC=C(Cl)Cl)cc1Cl [Compound 650] | 100 | 100 |
| Cc1nn(-c2ccc(Cl)cc2Cl)c(=O)n1CCCCOc1c(Cl)cc(OCC=C(Cl)Cl)cc1Cl [Compound 118] | 100 | 100 |
| O=c1cnn(-c2ccc(Cl)c(Cl)c2)c(=O)n1CCCCOc1c(Cl)cc(OCC=C(Cl)Cl)cc1Cl [Compound 647] | 100 | 100 |
| O=c1cnn(-c2ccc(F)cc2F)c(=O)n1CCCCOc1c(Cl)cc(OCC=C(Cl)Cl)cc1Cl [Compound 653] | 100 | 100 |
| O=c1n(CCCCOc2c(Cl)cc(OCC=C(Cl)Cl)cc2Cl)nnn1Cc1cccc(Cl)c1 [Compound 514] | 100 | 100 |
| O=c1cnn(-c2ccc(Cl)cc2)c(=O)n1CCCCOc1c(Cl)cc(OCC=C(Cl)Cl)cc1Cl [Compound 651] | 100 | 100 |
| CC(C)(C)c1ccc(-n2ncn(CCCCOc3c(Cl)cc(OCC=C(Cl)Cl)cc3Cl)c2=O)cc1 [Compound 83] | 100 | 100 |
| O=c1n(CCCCOc2c(Cl)cc(OCC=C(Cl)Cl)cc2Cl)cnn1-c1cc(Cl)cc(Cl)c1 [Compound 81] | 100 | 100 |
| O=c1n(CCCCOc2c(Cl)cc(OCC=C(Cl)Cl)cc2Cl)cnn1-c1ccc(OC(F)(F)F)cc1 [Compound 97] | 100 | 100 |
| O=c1cnn(-c2ccccc2)c(=O)n1CCCCOc1c(Cl)cc(OCC=C(Cl)Cl)cc1Cl [Compound 657] | 100 | 100 |
| O=c1n(CCOc2c(Cl)cc(OCC=C(Cl)Cl)cc2Cl)cnn1-c1ccc(C(F)(F)F)cc1 [Compound 105] | 100 | 100 |
| COc1ccc(-n2ncc(=O)n(CCCCOc3c(Cl)cc(OCC=C(Cl)Cl)cc3Cl)c2=O)cc1 [Compound 655] | 100 | 100 |
| O=c1n(CCCCOc2c(Cl)cc(OCC=C(Cl)Cl)cc2Cl)cnn1-c1ccccc1Cl [Compound 92] | 100 | 100 |
| O=c1n(CCCCOc2c(Cl)cc(OCC=C(Cl)Cl)cc2Cl)cnn1-c1ccc(Cl)cc1 [Compound 91] | 100 | 100 |
| O=c1cnn(-c2ccc(Cl)cc2Cl)c(=O)n1CCCCOc1c(Cl)cc(OCC=C(Cl)Cl)cc1Cl [Compound 648] | 100 | 100 |
| Cc1nn(-c2ccc(Cl)cc2)c(=O)n1CCCCOc1c(Cl)cc(OCC=C(Cl)Cl)cc1Cl [Compound 113] | 100 | 100 |
| O=C1CN(CCCCOc2c(Cl)cc(OCC=C(Cl)Cl)cc2Cl)C(=O)N1c1ccc(Cl)cc1 [Compound 576] | 100 | 100 |
| CC(C)(C)c1ccc(-n2nnn(CCCCOc3c(Cl)cc(OCC=C(Cl)Cl)cc3Cl)c2=O)cc1 [Compound 291] | 100 | 100 |
| O=c1n(CCCCOc2c(Cl)cc(OCC=C(Cl)Cl)cc2Cl)nnn1Cc1ccccc1Cl [Compound 513] | 100 | 100 |
| O=c1n(-c2ccc(Cl)cc2)cnn1CCCCOc1c(Cl)cc(OCC=C(Cl)Cl)cc1Cl [Compound 41] | 100 | 100 |
| Cc1nn(-c2ccc(C(F)(F)F)cc2)c(=O)n1CCCCOc1c(Cl)cc(OCC=C(Cl)Cl)cc1Cl [Compound 131] | 100 | 100 |
| Cc1cc(-n2ncn(CCCCOc3c(Cl)cc(OCC=C(Cl)Cl)cc3Cl)c2=O)ccc1Cl [Compound 88] | 100 | 100 |
| O=c1n(CCCCOc2c(Cl)cc(OCC=C(Cl)Cl)cc2Cl)cnn1-c1cccc(Cl)c1Cl [Compound 76] | 100 | 100 |
